The values below come from patent publication US8030286B2, “Methods and means for increasing resistance to cell damage” (University of Medicine and Dentistry of New Jersey, priority 2004, dated 2011).

For one experiment, the system named is eEF2 kinase+/+ MEFs. The experiment in a line: MTT viability assay, wild type MEFs. It counts as cell-based, mouse. The procedure: (§1) MTT Survival Assay: MEFs used in this study (2×10^3 cells per well of a 96 well plate) are incubated in the presence of indicated drugs for 24 hours. Cell viability is determined using the standard MTT assay^30. Each experiment is repeated three times for each drug and each cell line using three parallel wells for each drug concentration. For colony formation assay cells are treated with indicated drugs for 24 hours and replated with complete DMEM at low density (500 cells per well in 6-well plate) in duplicate. After 10 days colonies are stained with 10 mg/ml methylene blue (Sigma Inc.) in 50% methanol.
(§2) The possible correlation between activation of eEF2 kinase and the resultant phosphorylation of eEF2 and Ca^2+ ionophore-induced cell death is addressed by comparing the viability of wild type and eEF2 kinase knockout mouse embryonic fibroblasts (MEFs) after incubation of each with different concentrations of ionomycin.
In general terms: Tetrazolium assays rely on reduction of a dye to a coloured formazan, in cell work by metabolically active cells.

In the next experiment the test system is eEF2 kinase−/− MEFs. Briefly: MTT viability assay, eEF2 kinase knockout MEFs. It counts as cell-based, mouse. The procedure: as §1, §2
Experiment [1] relates to wild type mouse embryonic fibroblasts (MEFs). The experiment in a line: Cell death in phase-contrast images, wild type MEFs. It counts as cell-based. To be noted: 1.6 μM doxorubicin, 24 hours.
The test system of another experiment is eEF2K-deficient cells. The experiment in a line: Cell death in phase-contrast images, eEF2K-deficient MEFs. To be noted: 1.6 μM doxorubicin, 24 hours. It counts as cell-based, mouse.

In the case of `Cc1ccc(C(=O)Cn2c3c(sc2=N)CCCC3)cc1` [PFTα, pifithrin α], the “effect of p53 inactivation on drug sensitivity (DOX)” value in the experiment on eEF2 kinase+/+ MEFs (DOX 24 h, MTT assay) was “strongly decreasing sensitivity”; with eEF2 kinase−/− MEFs (DOX 24 h, MTT assay) it was “only slightly affected”.
As for `COc1cccc2c1C(=O)c1c(O)c3c(c(O)c1C2=O)C[C@@](O)(C(=O)CO)C[C@@H]3O[C@H]1C[C@H](N)[C@H](O)[C@H](C)O1` [doxorubicin], the cell death result was “significant cell death” in experiment [1] and “much less cell death” with eEF2K-deficient cells.
As to `C[C@H](CCC(=O)O)C[C@H](C)C[C@H](C)C(=O)/C=C(\O)[C@H](C)C[C@H](C)C/C=C/[C@@H](C)[C@@H](O)[C@@H](C)[C@@H](O)C[C@@H]1CC[C@@](C)([C@H]2CC[C@@](C)([C@@H](C)O)O2)O1` [ionomycin], in the experiment on eEF2 kinase+/+ MEFs (10 μM ionomycin, incubation for 24 h), the cells die result is given as “approximately 70%”. Further, the cell viability result in the experiment with eEF2 kinase+/+ MEFs (increasing concentrations of ionomycin from 1 to 10 μM, 24 h) is reported as “progressive decrease of cell viability”. For the same compound, the “effect on the viability” value in the experiment on eEF2 kinase−/− MEFs (same concentrations of ionomycin (1 to 10 μM), 24 h) is “virtually no effect”.
